Paper PMC7018746, “An efficient and targeted synthetic approach towards new highly substituted 6-amino-pyrazolo[1,5-a]pyrimidines with α-glucosidase inhibitory activity” (Scientific Reports, 2020)
Like-named read-outs stand apart in the source and are kept apart here.

Tests used:
[1] = molecular target: T1, α-glucosidase (Saccharomyces cerevisiae, EC.3.2.1.20) (Saccharomyces cerevisiae, UniProt P53341); assay: biochemical; format: biochemical; conditions: for IC50: mean ± SD, at least three experiments, read-out: IC50 (µM), in vitro α-glucosidase inhibitory activity
T1 construct: purchased Sigma-Aldrich
Protocol: α-Glucosidase enzyme (EC3.2.1.20, Saccharomyces cerevisiae, 20 U/mg) and substrate (p-nitrophenyl glucopyranoside) were purchased from Sigma-Aldrich. […] Finally, the change in absorbance was measured at 405 nm by using spectrophotometer (Gen5, Power wave xs2, BioTek, America). DMSO (10% final concentration) and acarbose were used respectively as control and standard drug. The percentage of enzyme inhibitionwas calculated and IC50 values were obtained from non-linear regression curve using the Logit method.

α-glucosidase = molecular target: T2, α-glucosidase (Saccharomyces cerevisiae, UniProt P53341); assay: Enzyme kinetic studies (Lineweaver-Burk and secondary plots); format: biochemical; conditions: for inhibition type: Lineweaver-Burk plot: Km increased, Vmax unchanged; for Ki: estimated from plot of Km versus inhibitor concentration, read-out: inhibition constant, Ki
T2 construct: purchased Sigma-Aldrich
Protocol: The inhibition mode of the synthesized compounds 3 against α-glucosidase was investigated. […]. The inhibition type was indicated on the basis of Michaelis-Menten and Lineweaver-Burk plots. […] […]. The […] of enzyme solution (1 U/mL) was incubated with different concentrations (0, 5, 10, and 15 µM) of selected compounds for 15 min at 30 °C. The reaction was then started by adding different concentrations of substrate (p-nitrophenyl glucopyranoside, 1-10 mM), and change in absorbance was measured for 20 min at 405 nm by using spectrophotometer (Gen5, Power wave xs2, BioTek, America).

[2] = Cytotoxicity studies, MDA-MB-231; format: cell-based; conditions: human, MDA-MB-231 breast cancer cells
Protocol: (§1) The cytotoxicity of some of potent compounds including 3d, 3m, 3v, and 3af was evaluated through use of the breast cancer cell line MDA-MB-231 and human pancreatic cancer cell line PANC-1.

[3] = system: breast cancer cell line MDA-MB-231; assay: Cytotoxicity studies, MDA-MB-231; format: cell-based; conditions: MDA-MB-231, at concentration of 100 µM
Protocol: as §1

[4] = Cytotoxicity studies, PANC-1; format: cell-based, human; conditions: human, PANC-1 pancreatic cancer cells
Protocol: as §1

[5] = system: human pancreatic cancer cell line PANC-1; assay: Cytotoxicity studies, PANC-1; format: cell-based; conditions: PANC-1, at concentration of 100 µM
Protocol: as §1

T1 sequence (P53341 whole entry): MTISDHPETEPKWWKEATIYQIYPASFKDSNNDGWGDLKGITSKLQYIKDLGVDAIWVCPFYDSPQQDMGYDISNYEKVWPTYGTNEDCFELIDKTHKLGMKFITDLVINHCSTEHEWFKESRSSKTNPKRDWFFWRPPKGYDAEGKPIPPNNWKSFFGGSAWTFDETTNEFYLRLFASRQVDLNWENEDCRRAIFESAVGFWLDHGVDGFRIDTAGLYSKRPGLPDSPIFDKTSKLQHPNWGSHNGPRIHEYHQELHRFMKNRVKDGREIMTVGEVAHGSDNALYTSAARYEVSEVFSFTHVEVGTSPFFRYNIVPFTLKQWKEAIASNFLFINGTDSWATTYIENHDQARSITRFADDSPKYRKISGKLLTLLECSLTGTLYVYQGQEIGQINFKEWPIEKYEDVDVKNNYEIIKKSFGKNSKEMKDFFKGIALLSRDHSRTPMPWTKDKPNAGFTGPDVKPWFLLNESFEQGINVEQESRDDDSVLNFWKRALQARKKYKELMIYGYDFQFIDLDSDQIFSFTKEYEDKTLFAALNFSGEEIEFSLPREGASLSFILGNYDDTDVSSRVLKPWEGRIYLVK
T2 sequence (P53341 whole entry): as above

melting point [°C] | IC50 ([1]; Table 1, compounds 3a-z) [µM] | Compound | IC50 ([1]; Table 2, compounds 3aa-ai) [µM] | inhibition type (α-glucosidase) | Ki (α-glucosidase) [µM] | IC50 [2] [µM] | cytotoxic activity [3] | IC50 [4] [µM] | cytotoxic activity [5] | fold more potent than acarbose ([1]; ratio of α-glucosidase IC50 values vs acarbose)
282 to 283 | 24.7 ± 1.1 | COc1ccc(NC(=O)c2c(Nc3ccccc3)nn3c(-c4ccc(Br)cc4)c(N)c(-c4ccc(C)cc4)nc23)cc1 [3m, 6-Amino-7-(4-bromophenyl)-N-(4-methoxyphenyl)-2-(phenylamino)-5-p-tolylpyrazolo[1,5-a]pyrimidine-3-carboxamide] |  |  |  | > 200 | did not possess any cytotoxic activity | > 200 | did not possess any cytotoxic activity | 
271 to 273 | 17.6 ± 0.6 | Cc1ccc(-c2nc3c(C(=O)Nc4ccc(Cl)cc4)c(Nc4ccccc4)nn3c(-c3ccc(Br)cc3)c2N)cc1 [3v, 6-Amino-7-(4-bromophenyl)-N-(4-chlorophenyl)-2-(phenylamino)-5-p-tolylpyrazolo[1,5-a]pyrimidine-3-carboxamide] |  |  |  | > 200 | did not possess any cytotoxic activity | > 200 | did not possess any cytotoxic activity | 
274 to 276 | 19.3 ± 0.9 | Nc1c(-c2ccc(Cl)cc2)nc2c(C(=O)Nc3ccc(Cl)cc3)c(Nc3ccccc3)nn2c1-c1cccs1 [3z, 6-Amino-N,5-bis(4-chlorophenyl)-2-(phenylamino)-7-(thiophen-2-yl)pyrazolo[1,5-a]pyrimidine-3-carboxamide] |  |  |  |  |  |  |  | 

Compound | melting point [°C] | IC50 ([1]; Table 1, compounds 3a-z) [µM] | IC50 ([1]; Table 2, compounds 3aa-ai) [µM] | inhibition type (α-glucosidase) | Ki (α-glucosidase) [µM] | IC50 [2] [µM] | cytotoxic activity [3] | IC50 [4] [µM] | cytotoxic activity [5] | fold more potent than acarbose ([1]; ratio of α-glucosidase IC50 values vs acarbose)
CCOC(=O)c1c(-c2ccccc2)nn2c(-c3ccc(Cl)cc3)c(N)c(-c3ccc(OC)cc3)nc12 [3af, Ethyl 6-amino-7-(4-chlorophenyl)-5-(4-methoxyphenyl)-2-phenylpyrazolo[1,5-a]pyrimidine-3-carboxylate] | 226 to 228 |  | 65.5 ± 3 | competitive inhibition | 65 | > 200 | did not possess any cytotoxic activity | > 200 | did not possess any cytotoxic activity | 
Cc1ccc(-c2nc3c(C(=O)Nc4ccccc4)c(Nc4ccccc4)nn3c(-c3ccc(Br)cc3)c2N)cc1 [3d, 6-Amino-7-(4-bromophenyl)-N-phenyl-2-(phenylamino)-5-p-tolylpyrazolo[1,5-a]pyrimidine-3-carboxamide] |  | 15.2 ± 0.4 |  | competitive inhibition | 12 | > 200 | did not possess any cytotoxic activity | > 200 | did not possess any cytotoxic activity | around 50 fold
